Measurements published in US7592335B2, “Oxazolidinone derivatives as antimicrobials” (Ranbaxy Laboratories Limited, priority 2005, dated 2009).
Converted amounts (≈) assume the structure as drawn.

Tests used:
[1] = system: Enterococcus faecalis ATCC 29212; assay: in vitro antibacterial activity, agar dilution MIC; assay type: cell-based; conditions: 35±2° C.
Protocol: (§1) The compounds of the invention display antibacterial activity when tested by the agar incorporation method. The following minimum inhibitory concentrations (μg/mL) were obtained for representative compound of the invention, which is given below in the following table.
(§2) Briefly, the compounds were dissolved in dimethylsulphoxide and doubling dilution of the compounds was incorporated into Muller Hilton agar before solidification. Inoculum for staphylococcus aureus and Enterococus strain was prepared by direct colony suspension in normal saline solution and adjusting the turbidity to 0.5 Macfarland turbidity and subsequently diluting as per NCCLS guidelines in order to obtain 10^4 CFU/spot. CFU/mL of few randomly selected cultures was performed. The cultures were replicated on agar plate using Denley's multipoint replicator. The agar plates were incubated for 18 hours-24 hours (24 hours for MRSA studies) at 35±2° C. Q.C. strains were also included in each run of the study.
(§3) The concentration showing no growth of the inoculated culture was recorded as the MIC. Appropriate ATCC standard strains were simultaneously tested and result recorded only when the MIC's against standard antibiotics were within the acceptable range.

[2] = system: Methicilline Resistant Staphylococcus aureus ATCC33; assay: in vitro antibacterial activity, agar dilution MIC; assay type: cell-based; conditions: 24 hours, 35±2° C.
Protocol: as §1, §2, §3

[3] = system: Methicilline Resistant Staphylococcus aureus ATCC562; assay: in vitro antibacterial activity, agar dilution MIC; assay type: cell-based; conditions: 24 hours, 35±2° C.
Protocol: as §1, §2, §3

[4] = system: Staphylococcus aureus ATCC 15187; assay: in vitro antibacterial activity, agar dilution MIC; assay type: cell-based; conditions: 35±2° C.
Protocol: as §1, §2, §3

[5] = system: Staphylococcus aureus ATCC 25923; assay: in vitro antibacterial activity, agar dilution MIC; assay type: cell-based; conditions: 35±2° C.
Protocol: as §1, §2, §3

[6] = system: Vancomycin-resistant enterococci ATCC 6A; assay: in vitro antibacterial activity, agar dilution MIC; assay type: cell-based; conditions: VRE ATCC 6A, 18-24 hours, 35±2° C.
Protocol: as §1, §2, §3

[7] = system: Streptococcus pneumonia ATCC AB34; assay: in vitro antibacterial activity, agar dilution MIC (MHA and 5% sheep blood); assay type: cell-based, Streptococcus pneumoniae; conditions: 18-24 hours
Protocol: as §1
(§4) Inoculum preparation for Streptococcus pneumoniae, Moraxella catarrhalis, Streptococcus pyogenes strains and the method of MIC is an agar dilution method with MHA (Mueller Hinton agar) and 5% sheep blood. Inoculum was prepared by direct colony suspension in normal saline solution and adjusting the turbidity to 1 Mcfarland and subsequently diluting as per NCCLS guidelines in order to obtain 10^4 CFU/ml. The plates were incubated in CO2 at 37° C. for 18-24 hours.
as §3

[8] = system: Streptococcus pneumonia ATCC6303; assay: as above; assay type: cell-based, Streptococcus pneumoniae; conditions: 18-24 hours
Protocol: as §1, §4, §3

[9] = system: Moraxella catarrhalis ATCC 8176; assay: as above; assay type: cell-based; conditions: 18-24 hours
Protocol: as §1, §4, §3

[10] = system: Streptococcus pyogenes ATCC 19615; assay: as above; assay type: cell-based; conditions: 18-24 hours
Protocol: as §1, §4, §3

[11] = system: Haemophilus influenzae 49247; assay: Haemophilus MIC, microbroth dilution method; assay type: cell-based; conditions: H. influ. 49247, Mueller Hinton Broth cation adjusted + yeast extract + supplements
Protocol: as §1
The in vitro activity for Haemophilus MICs were performed by using Microbroth dilution method as follows: Media used: Mueller Hinton Broth (MHB-Difco)−Cation adjusted+5 grams per liter Yeast extract+supplements
Preparation of drug concentrations in 96 well microtitre plates were done as per the NCCLS method. Inoculum was prepared by direct colony suspensions in normal saline and adjusted to 1 McFarland turbidity and subsequently diluted in broth 100 times as per NCCLS guidelines in order to obtain 10^5 […].
as §3

CC(=O)NCC1CN(c2ccc(N3CC4NCCOC4C3)c(F)c2)C(=O)O1 (stereo not shown) [Compound No. 05, N-[(3-{3-fluoro-4-[(7aE)-hexahydropyrrolo[3,4-b][1,4]oxazin-6(2H)-yl]phenyl}-2-oxo-1,3-oxazolidin-5-yl)methyl]acetamide]
minimum inhibitory concentration, E. faecalis 29212 ([1]; Ent. faecalis ATCC 29212, 18-24 hours): 2 µg/mL (≈ 5.29 µM)
minimum inhibitory concentration, MRSA 33 [2]: 4 µg/mL (≈ 10.6 µM)
minimum inhibitory concentration, MRSA 562 [3]: 4 µg/mL (≈ 10.6 µM)
minimum inhibitory concentration, S. aureus 15187 ([4]; S. aureus ATCC 15187, 18-24 hours): 8 µg/mL (≈ 21.1 µM)
minimum inhibitory concentration, S. aureus 25923 ([5]; S. aureus ATCC 25923, 18-24 hours): 8 µg/mL (≈ 21.1 µM)
minimum inhibitory concentration, VRE 6A [6]: 2 µg/mL (≈ 5.29 µM)
minimum inhibitory concentration, S. pneum AB34 ([7]; CO2, 37° C.): 2 µg/mL (≈ 5.29 µM)
minimum inhibitory concentration, S. pneum 6303 ([8]; CO2, 37° C.): 2 µg/mL (≈ 5.29 µM)
minimum inhibitory concentration, M. catt 8176 ([9]; M. catt. ATCC 8176, CO2, 37° C.): >16 µg/mL
minimum inhibitory concentration, S. pyogenes 19615 ([10]; Strep. pyog. ATCC 19615, CO2, 37° C.): 2 µg/mL (≈ 5.29 µM)
minimum inhibitory concentration, H. inf 49247 [11]: 8 µg/mL

CC(=O)NC[C@H]1CN(c2ccc(N3CCOCC3)c(F)c2)C(=O)O1 [Linezolid]
MIC ([1]; Enterococcus faecalis, ATCC29212, Ent. faecalis ATCC 29212, 18-24 hours, read-out: minimum inhibitory concentration, E. faecalis 29212): 2 µg/mL (≈ 5.93 µM)
MIC ([2]; Staphylococcus aureus, ATCC 33 / MRSA, read-out: minimum inhibitory concentration, MRSA 33): 2 µg/mL (≈ 5.93 µM)
MIC ([3]; Staphylococcus aureus, ATCC 562 / MRSA, read-out: minimum inhibitory concentration, MRSA 562): 2 µg/mL (≈ 5.93 µM)
MIC ([4]; Staphylococcus aureus, ATCC15187, S. aureus ATCC 15187, 18-24 hours, read-out: minimum inhibitory concentration, S. aureus 15187): 2 µg/mL (≈ 5.93 µM)
MIC ([5]; Staphylococcus aureus, ATCC25923, S. aureus ATCC 25923, 18-24 hours, read-out: minimum inhibitory concentration, S. aureus 25923): 2 µg/mL (≈ 5.93 µM)
MIC ([6]; Enterococcus, read-out: minimum inhibitory concentration, VRE 6A): 2 µg/mL (≈ 5.93 µM)
MIC ([7]; Streptococcus pneumoniae, ATCCAB34, S. pneum ATCC AB34, CO2, 37° C., read-out: minimum inhibitory concentration, S. pneum AB34): 2 µg/mL (≈ 5.93 µM)
MIC ([8]; Streptococcus pneumoniae, S. pneum ATCC6303, CO2, 37° C., read-out: minimum inhibitory concentration, S. pneum 6303): 1 µg/mL (≈ 2.96 µM)
MIC ([9]; Moraxella catarrhalis, ATCC8176, M. catt. ATCC 8176, CO2, 37° C., read-out: minimum inhibitory concentration, M. catt 8176): 2 µg/mL (≈ 5.93 µM)
MIC ([10]; Streptococcus pyogenes, ATCC19615, Strep. pyog. ATCC 19615, CO2, 37° C., read-out: minimum inhibitory concentration, S. pyogenes 19615): 2 µg/mL (≈ 5.93 µM)
MIC ([11]; Haemophilus influenzae, read-out: minimum inhibitory concentration, H. inf 49247): 8 µg/mL
